Experimental data from US10272087B2, “Pteridines as FGFR inhibitors” (ASTEX THERAPEUTICS LIMITED, priority 2012, dated 2019).

Legend:
KDR (h) (VEGFR2) = KDR (h) (VEGFR2) (Homo sapiens (Human), UniProt P35968); test: KDR (VEGFR2) (enzymatic assay), TR-FRET; format: biochemical; details: 3 μM ATP; read-out: VEGFR KDR pIC50 (converted)
[1] = system: Ba/F3-FGFR1-transfected cells; test: cells; details: read-out: BAF3-FGFR1 (MIN IL3 pIC50) (converted)
[2] = system: Ba/F3-FGFR4-transfected cells; test: cells; details: read-out: BAF3-FGFR4 (pIC50) (converted)
[3] = system: Ba/F3-KDR-transfected cells; test: cells; details: read-out: BAF3-KDR (MIN IL3 pIC50) (converted)

Chain of KDR (h) (VEGFR2) (P35968 20-1356): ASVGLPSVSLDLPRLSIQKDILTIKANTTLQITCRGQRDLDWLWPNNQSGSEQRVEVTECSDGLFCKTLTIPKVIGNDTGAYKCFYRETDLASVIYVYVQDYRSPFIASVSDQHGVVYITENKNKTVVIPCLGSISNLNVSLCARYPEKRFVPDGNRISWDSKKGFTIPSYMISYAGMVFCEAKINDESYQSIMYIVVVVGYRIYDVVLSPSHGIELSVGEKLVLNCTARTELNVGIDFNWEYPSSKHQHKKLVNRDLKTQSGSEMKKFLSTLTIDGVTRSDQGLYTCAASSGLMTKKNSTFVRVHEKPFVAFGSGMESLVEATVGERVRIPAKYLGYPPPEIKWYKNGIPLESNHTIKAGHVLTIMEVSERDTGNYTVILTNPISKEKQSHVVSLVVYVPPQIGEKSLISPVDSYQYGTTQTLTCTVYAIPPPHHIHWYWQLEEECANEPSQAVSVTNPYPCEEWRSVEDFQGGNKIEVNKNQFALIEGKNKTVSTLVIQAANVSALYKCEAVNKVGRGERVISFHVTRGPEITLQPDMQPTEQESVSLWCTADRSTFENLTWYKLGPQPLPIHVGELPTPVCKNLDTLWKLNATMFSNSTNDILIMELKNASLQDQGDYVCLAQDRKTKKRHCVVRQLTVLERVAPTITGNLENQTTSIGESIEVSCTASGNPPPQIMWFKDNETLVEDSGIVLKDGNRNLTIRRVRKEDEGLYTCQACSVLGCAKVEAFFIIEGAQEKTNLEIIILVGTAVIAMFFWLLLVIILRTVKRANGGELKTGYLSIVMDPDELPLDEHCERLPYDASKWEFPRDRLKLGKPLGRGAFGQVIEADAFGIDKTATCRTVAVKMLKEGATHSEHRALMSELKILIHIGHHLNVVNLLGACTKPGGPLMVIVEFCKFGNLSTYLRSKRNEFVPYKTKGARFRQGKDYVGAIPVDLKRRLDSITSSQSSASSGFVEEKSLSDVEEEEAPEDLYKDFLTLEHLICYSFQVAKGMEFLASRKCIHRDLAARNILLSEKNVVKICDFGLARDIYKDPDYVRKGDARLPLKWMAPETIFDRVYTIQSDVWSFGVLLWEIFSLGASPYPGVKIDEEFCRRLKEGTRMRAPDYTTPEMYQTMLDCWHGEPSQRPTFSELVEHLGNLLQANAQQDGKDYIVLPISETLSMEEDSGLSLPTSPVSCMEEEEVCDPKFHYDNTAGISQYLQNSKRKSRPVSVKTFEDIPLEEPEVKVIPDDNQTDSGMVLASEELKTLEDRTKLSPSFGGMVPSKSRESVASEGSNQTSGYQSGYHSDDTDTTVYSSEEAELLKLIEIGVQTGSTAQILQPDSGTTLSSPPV

`COc1cc(OC)c(F)c(N(Cc2ncc[nH]2)c2ncc3ncc(-c4cnn(C)c4)nc3n2)c1F` [Compound 2] gave an IC50 (KDR (h) (VEGFR2)) of 25.1 nM, an IC50 [1] of 6.31 nM and an IC50 [2] of 25.1 nM.

Molecule `CNCCN(c1ncc2ncc(-c3cnn(C)c3)nc2n1)c1c(F)c(OC)cc(OC)c1F` [Compound 9] has an IC50 (KDR (h) (VEGFR2)) of 398 nM and an IC50 [3] of 2510 nM.

In the case of `COc1cc(OC)cc(N(CC2CC2)c2ncc3ncc(-c4ccccc4)nc3n2)c1` [Compound 7], the IC50 (KDR (h) (VEGFR2)) was over 1000 nM and the IC50 [3] was over 10000 nM.

With `COc1cc(OC)c(F)c(N(C[C@@H]2CCC(=O)N2)c2ncc3ncc(-c4cnn(C)c4)nc3n2)c1F` [Compound 8] the IC50 (KDR (h) (VEGFR2)) was 794 nM and the IC50 [3] was over 10000 nM.

In the case of `COc1cc(OC)c(F)c(N(C[C@H]2CCC(=O)N2)c2ncc3ncc(-c4cnn(C)c4)nc3n2)c1` [Compound 10], the IC50 (KDR (h) (VEGFR2)) was 1000 nM.

Work on `COc1cc(OC)c(F)c(N(Cc2nccn2S(=O)(=O)N(C)C)c2ncc3ncc(-c4cnn(C)c4)nc3n2)c1F` [Compound 1] yielded an IC50 (KDR (h) (VEGFR2)) of 100 nM.

With `COc1cc(OC)c(F)c(N(Cc2ncc[nH]2)c2ncc3ncc(-c4cnn(C)c4)nc3n2)c1` [Compound 13] the IC50 (KDR (h) (VEGFR2)) was 251 nM.

In the case of `COc1cc(OC)cc(N(CCO)c2ncc3ncc(-c4ccccc4)nc3n2)c1` [Compound 4], the IC50 [3] was over 10000 nM.

Molecule `COc1cc(OC)cc(N(CCO)c2ncc3ncc(-c4cnn(C)c4)nc3n2)c1` [Compound 3] has an IC50 (KDR (h) (VEGFR2)) of over 1000 nM and an IC50 [3] of over 10000 nM.

For `COc1cc(OC)c(F)c(N(C[C@@H]2CCC(=O)N2)c2ncc3ncc(-c4cnn(C)c4)nc3n2)c1` [Compound 11], the IC50 (KDR (h) (VEGFR2)) was over 1000 nM.
